# Columns and labels:
# [1] = tested on: Secretion of IL10 by TMD8 ABC-DLBCL cells; assay: Human IL10 Mesoscale assay (TMD-8); type: cell-based; conditions: TMD8 cells, 24 h incubation, supernatant, MSD V-Plex, read-out: Human IL10 Mesoscale assay (TMD-8)
# How it was run: (§1)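 TMD8 or OCI-LY3 ABC-DLBCL cells incubated with compound 24 h at 37° C without beta-mercaptoethanol. Secreted IL6 and IL10 in supernatant quantified by MSD electrochemiluminescence immunoassay; DMSO wells define maximum signal.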
# [2] = tested on: Secretion of IL10 by OCI-LY3 ABC-DLBCL cells; assay: Human IL10 Mesoscale assay (OCI-LY3); type: cell-based; conditions: OCI-LY3 cells, 24 h incubation, supernatant, MSD V-Plex, read-out: Human IL10 Mesoscale assay (OCI-LY3)
# How it was run: as §1
# [3] = target: T1, full-length MALT1 protein (Strep-MALT1(1-824)-His) (Homo sapiens, UniProt Q9UDY8); assay: biochemical;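 further: fluorogenic LRSR-AMC substrate cleavage by MALT1, 50 min compound preincubation then 4 h reaction at RT, 11-point dilution from 30 µM, scaled between enzyme-free and untreated enzyme controls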
# T1 sequence (Q9UDY8 1-824): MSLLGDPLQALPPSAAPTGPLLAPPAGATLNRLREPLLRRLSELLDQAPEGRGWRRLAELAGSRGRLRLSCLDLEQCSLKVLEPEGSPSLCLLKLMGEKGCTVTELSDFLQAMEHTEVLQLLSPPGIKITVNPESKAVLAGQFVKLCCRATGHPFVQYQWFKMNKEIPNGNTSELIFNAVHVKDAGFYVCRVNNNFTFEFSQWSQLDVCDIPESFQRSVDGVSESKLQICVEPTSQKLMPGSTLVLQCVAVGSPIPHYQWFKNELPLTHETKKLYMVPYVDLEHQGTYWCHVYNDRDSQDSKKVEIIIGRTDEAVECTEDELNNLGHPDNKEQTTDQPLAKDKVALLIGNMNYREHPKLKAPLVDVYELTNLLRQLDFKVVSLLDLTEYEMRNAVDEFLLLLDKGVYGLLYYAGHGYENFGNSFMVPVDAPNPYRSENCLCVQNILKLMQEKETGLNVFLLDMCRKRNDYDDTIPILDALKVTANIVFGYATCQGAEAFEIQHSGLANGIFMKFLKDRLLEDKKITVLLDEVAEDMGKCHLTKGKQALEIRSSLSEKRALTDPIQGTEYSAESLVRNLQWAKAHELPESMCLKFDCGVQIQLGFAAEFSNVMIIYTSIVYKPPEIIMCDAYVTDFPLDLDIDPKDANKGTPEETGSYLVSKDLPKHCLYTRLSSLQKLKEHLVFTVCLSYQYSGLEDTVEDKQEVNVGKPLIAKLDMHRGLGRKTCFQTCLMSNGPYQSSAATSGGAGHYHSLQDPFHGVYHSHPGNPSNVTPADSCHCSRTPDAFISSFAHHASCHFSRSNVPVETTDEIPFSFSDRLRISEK
# [4] = tested on: OCI-Ly3 ABC-DLBCL cell line; assay: 4-day proliferation assay OCI-Ly3; type: cell-based; conditions: Homo sapiens, 96 h; 10,000 OCI-Ly3 cells per well, 4 days, CellTiterGLO; read-out: Anti-proliferation: OCI-LY-3 IC50
# How it was run: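 10,000 OCI-Ly3 cells per well cultured 4 days at 37° C., 5% CO2 without beta-mercaptoethanol, at densities giving linear growth. Viability read by CellTiterGLO luminescence after 10 min at room temperature.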
# [5] = tested on: Secretion of IL6 by OCI-LY3 ABC-DLBCL cells; assay: Human IL6 Mesoscale assay (OCI-LY3); type: cell-based; conditions: OCI-LY3 cells, 24 h incubation, supernatant, MSD V-Plex, read-out: Human IL6 Mesoscale assay (OCI-LY3)
# How it was run: as §1
# [6] = tested on: Secretion of IL6 by TMD8 ABC-DLBCL cells; assay: Human IL6 Mesoscale assay (TMD-8); type: cell-based; conditions: TMD8 cells, 24 h incubation, supernatant, MSD V-Plex, read-out: Human IL6 Mesoscale assay (TMD-8)
# How it was run: as §1
compound,measurement,setting,value
"N#Cc1cc(NC(=O)c2cnn(-c3ccnc4c3OCO4)c2C(F)(F)F)cnc1-n1nccn1 [Cpd 53, 1-([1,3]dioxolo[4,5-b]pyridin-7-yl)-N-(5-cyano-6-(2H-1,2,3-triazol-2-yl)pyridin-3-yl)-5-(trifluoromethyl)-1H-pyrazole-4-carboxamide]",IC50,[1],209 nM
same,IC50,[2],145 nM
same,IC50,[3],74 nM
same,IC50,[4],1860 nM
same,IC50,[5],166 nM
same,IC50,[6],89 nM

# — US11040031B2, “Pyrazole derivatives as MALT1 inhibitors” (Janssen Pharmaceutica NV, priority 2018, dated 2021)
